Measured values reported in patent US9957232B2, “4-[4-({[4-chloro-3-(trifluoromethyl)phenyl]carbamoyl}amino)-3-fluorophenoxy]-N-methylpyridine-2-carboxamide monohydrate” (BAYER HEALTHCARE LLC, priority 2006, dated 2018).

Experiment: stability in the manufacture of pharmaceutical compositions
Format: physicochemical
Conditions: monohydrate form; qualitative statement, no test described

- stability in the manufacture of pharmaceutical compositions: high stability
Compound: CNC(=O)c1cc(Oc2ccc(NC(=O)Nc3ccc(Cl)c(C(F)(F)F)c3)c(F)c2)ccn1 [compound of the formula (II), 4-[4-({[4-chloro-3-(trifluoromethyl)phenyl]carbamoyl}amino)-3-fluorophenoxy]-N-methylpyridine-2-carboxamide monohydrate]
